Consider seven compounds from PMC12071365, “Discovery of Boronic Acids-Based β-Lactamase Inhibitors Through In Situ Click Chemistry” (International Journal of Molecular Sciences, 2025).

Series [1] addresses T1, AmpC (Escherichia coli, UniProt P00811). Description: Binary in situ click chemistry between 3 and Al-12, with or without SM23. As to conditions: binary 3 + Al-12; AmpC 20 mol%; SM23 1 mol%. More on the design: made in house. How it is done:
(§1) Binary and multicomponent KTGS. […] The microtube was shaken at 300 rpm at 37 °C for 24 h. Reactions were transferred into a LC–MS vial and directly injected (10 µL) for liquid chromatography–mass spectrometry (LC–MS). Reactions were analysed with an Ultimate 3000 UHPLC coupled to a Q-exactive hybrid quadrupole-orbitrap mass spectrometer via an HESI-II heated electrospray ionisation source. The chromatographic separation was performed injecting a 10 µL sample volume on a Hypersil Gold C18 100 × 2.1 mm, 1.9 µm column (Thermo Fisher Scientific), kept at 30 °C eluting with 0.3 mL/min flow of ultrapure water (A) and methanol (B), both with 0.1% formic acid as mobile phase. […] A data-dependent mass spectrometric data acquisition strategy was used for full MS/DD-MS2. […] An inclusion list was eventually used to target the MS2 spectra acquisition of preferred ion species. Detection was based on calculated [M+H]^+ and [M−H]^− molecular ions with a 5 ppm accuracy tolerance for their respective ion chromatogram extraction. Peak retention time and area of detected target compounds was used for their detection and semi-quantitative evaluation in between reaction batches.
For controls (buffer and BSA), AmpC/KPC-2 is replaced with no enzyme (buffer volume 95 µL) and BSA (stock 100 µM, final concentration 5 µM, buffer volume 90 µL). […]

For series [2], the target named is T1, AmpC. The series can be described thus: LC-MS t-SIM detection of boronic acids incubated with AmpC. Particulars: 24 h, 37 °C. Also on record: made in house. The source says:
Given that boronic acids act as transition-state inhibitors by binding the catalytic serine of β-lactamases through a reversible covalent bond, we aimed to determine whether the in situ click chemistry reaction products were quantitatively detected during LC–MS analysis. Although boronic acids are reversible binders, their fast on–slow off behaviour raised concerns that triazole product formation might be underestimated due to covalent adducts forming with the protein target. To investigate this, compound 10a, warhead 3, and compounds 8 and 9 were incubated with AmpC (1:1 or 1:5 protein:compound ratio), and their detection was monitored over 24 h (Figure 10). […] The percentage of boronic acids detected was estimated using peak area measurements in the LC–MS-targeted SIM mode, with quantification being performed using calibration curves. The experiments were conducted at 37 °C in a 95:5 sodium phosphate 50 mM pH 7.0:DMSO mixture.
Figure 10 The % of detection of 10a (grey box), 3 (yellow box), 8 (green box), and 9 (blue box) over the course of the 24 h using the t-SIM method. Each cpd was tested in presence of 20% mol of AmpC or stoichiometric amount of AmpC. Each box includes 4 columns corresponding to % boronic acid detected at a certain time point (0, 8, 16, and 24 h).

The target in series [3] is T1, AmpC. The series can be described thus: Competitive inhibition assay with nitrocefin, Ki. The format is biochemical. Also on record: made in house. Particulars: AmpC; values in nM. How it is done:
(§2) The β-lactamases used in the present study were from a Clinical Biochemistry Laboratory collection (Department of Biotechnological and Applied Clinical Sciences, University of L’Aquila, L’Aquila, Italy). […] The concentration of each enzyme was determined by a Bradford assay.
The plot v0/vi versus [I] yielded a straight line of slope KM/(KM + S) × Ki.
Figure 9 Compounds synthesised and their biological evaluation. AC = Amplification coefficient. […] Light blue indicates the compounds from the AmpC screening.

The target in series [4] is T1, AmpC. More on the design: made in house. Particulars: AmpC 20 mol%; warhead 3 + alkyne cluster; 37 °C, 24 h. As to the method: Following the same conditions used for the multicomponent screening with KPC-2, the in situ click chemistry experiment was performed using AmpC as template.
as §1
For controls (buffer and BSA), AmpC/KPC-2 is replaced with no enzyme (buffer volume 95 µL) and BSA (stock 100 µM, final concentration 5 µM, buffer volume 90 µL). Hits were identified in each cluster by mass and retention time and compared with both controls (buffer and BSA) and synthetically prepared triazoles obtained in mixtures.

The target in a further series is OXA-48 (Klebsiella pneumoniae, UniProt Q6XEC0). Description: KM of reporter substrate (Hanes-Woolf). The format is biochemical. As to conditions: NaPi 50 mM pH 7.0.
Another series addresses NDM-1 (Klebsiella pneumoniae, UniProt C7C422). As to conditions: read-out: KM substrate, HEPES 20 mM pH 7.0 + 20 µM Zn. As to the method:
as §2

The target of the next series is SHV-12 (Klebsiella pneumoniae, UniProt P0AD64, E235K/G234S/L31Q). Particulars: read-out: KM substrate, NaPi 50 mM pH 7.0.
The next series addresses KPC-53 (Klebsiella pneumoniae, UniProt Q9F663, DUP166-167/H272Y). Particulars: read-out: KM substrate, NaPi 50 mM pH 7.0.
Series [5] has as its target T1, AmpC. Particulars: read-out: KM substrate; pH 7. As to the method:
as §2

For another series, the target named is ADC-7. Also on record: method as in PMID 26102369, PMID 34970229, PMID 37358467, PMID 26729491. Particulars: ref [17],[19],[35],[36]; cited from earlier work.
In the next series the target is T2, KPC-2 (Klebsiella pneumoniae, UniProt Q9F663).
T2 construct: made in house
Also on record: method as in PMID 26102369, PMID 34970229, PMID 37358467, PMID 26729491. As to conditions: ref [17],[19],[35],[36]; cited from earlier work.

A short description of series [6]: Stability in phosphate buffer by 1H NMR. Format: physicochemical. The source says: Previously, even a low level of affinity was reported to be sufficient for the target-templated reaction. Therefore, to enable in situ click chemistry within the β-lactamase’s binding pocket, a series of bifunctional “warheads” displaying two defined features were designed. Firstly, the presence of the boronic acid moiety serves as an anchor to the SBLs catalytic serine. Secondly, the azido functionalisation guarantees the clickable building block for generation of bioactive triazoles within the target active site. Thus, one 2-azido-1-acylamino-ethaneboronic acid and three azidomethyl-phenylboronic acids were synthesised and characterised (Figure 3). […] Herein, the amide side chain from cephalothin is well known to interact with various β-lactamases through van der Waals and H-bonding interactions and can aid the process of recognition within the target. […] Other warheads inspired by previously developed acyclic boronic acids were not considered in this manuscript and will be explored in future works.

For series [7], the system named is O=C(Cc1cccs1)N[C@@H]1C(=O)N2C(C(=O)O)=C(/C=C/c3ccc([N+](=O)[O-])cc3[N+](=O)[O-])CS[C@H]12. The series can be described thus: KM of reporter substrate (Hanes-Woolf). As to conditions: pH 7.0. Format: biochemical.
Description: (§3) The β-lactamases used in the present study were from a Clinical Biochemistry Laboratory collection (Department of Biotechnological and Applied Clinical Sciences, University of L’Aquila, L’Aquila, Italy). All enzymes show a purity degree of higher than 95%. The concentration of each enzyme was determined by a Bradford assay.

T1 sequence (P00811 20-377): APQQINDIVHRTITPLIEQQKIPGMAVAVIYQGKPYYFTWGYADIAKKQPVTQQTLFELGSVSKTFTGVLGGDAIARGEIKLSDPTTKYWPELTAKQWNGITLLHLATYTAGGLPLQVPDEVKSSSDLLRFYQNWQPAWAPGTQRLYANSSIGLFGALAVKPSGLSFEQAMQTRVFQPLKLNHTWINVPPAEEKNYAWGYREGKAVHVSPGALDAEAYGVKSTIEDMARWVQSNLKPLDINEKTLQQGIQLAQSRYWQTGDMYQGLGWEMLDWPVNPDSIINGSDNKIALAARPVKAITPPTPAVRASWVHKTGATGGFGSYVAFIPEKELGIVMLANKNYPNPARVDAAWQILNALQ
Description for KPC-53: as §3
Description for OXA-48: as §3
Description for SHV-12: as §3

As a reminder, the Ki is a dissociation constant, usually derived from enzyme kinetics or from competition with a known ligand. Turning to `O=S(=O)(NCc1cnnn1Cc1cccc(B(O)O)c1)C1CCCCC1` [10a], the “AC 10/10a” value on AmpC [1] was 1-2. For the same compound, at AmpC [2] (20 mol% AmpC, sodium phosphate pH 7.0:DMSO 95:5), the “% boronic acid detected (remaining)” value is given as 83%. Also, the “boronic acid level detected” value on AmpC [2] (stoichiometric AmpC) is reported as “remained stable”. For the same compound, the Ki at AmpC [3] stood at 140 nM. Further, the “AC (amplification coefficient)” value at AmpC [4] is reported as 5-6.

With `C[C@@H](O)[C@H]1C(=O)N2C(C(=O)O)=C(SCCN=CN)C[C@H]12` [IMI, Imipenem], the Km at OXA-48 came out at 13 ± 1 µM.

For `C[C@@H](O)[C@H]1C(=O)N2C(C(=O)O)=C(S[C@@H]3CN[C@H](C(=O)N(C)C)C3)[C@H](C)[C@H]12` [MPM, Meropenem], the Km on NDM-1 turned out to be 80 ± 1 µM.

Regarding `O=C(Cc1cccs1)N[C@@H]1C(=O)N2C(C(=O)O)=C(/C=C/c3ccc([N+](=O)[O-])cc3[N+](=O)[O-])CS[C@H]12` [NCF, Nitrocefin], the Km at SHV-12 stood at 50 ± 3 µM; at KPC-53, 106 ± 2 µM; on AmpC [5] it was 118 ± 2 µM.

A word on the IC50: it is the concentration at which inhibition is half-maximal. On to `O=C(Cc1cccs1)NC(Cn1cc(C(=O)O)nn1)B(O)O` (centres unmarked) [S02030], for which the inhibition constant (Ki) at ADC-7 was 45 nM. Further, the IC50 on KPC-2 is 80 nM.

On to `[N-]=[N+]=NCC(NC(=O)Cc1cccs1)B(O)O` (centres unmarked) [compound 1], for which, in series [6], the “stability in phosphate buffer” value is “partially degrades”.

In the case of ADC-25 (Acinetobacter baumannii), the Km in [7] is given as 120 ± 3 µM µM.
